Where two headings read alike, the source gives them in different places.
Experiments:
[1] = system: Ps. cepacia 23; experiment: in vitro antibacterial activity, agar plate dilution method (MIC); format: cell-based, Pseudomonas cepacia; conditions: Burkholderia cepacia, 16 h; Ps. cepacia 23; 10^6 CFU/ml; read-out: Minimum Inhibitory Concentration (MIC)
Experimental: (§1) The in vitro antibacterial activities of the compounds of the present invention against various microorganisms, were measured by the following agar plate dilution method. One platinum loopfull of each test microorganism incubated overnight in Mueller Hinton broth, was inoculated to Mueller Hinton agar (inoculum size: 10^6 CFU/ml). Such culture media containing various antibiotics in various concentrations were prepared. After incubation at 37° C. for 16 hours, the minimum inhibitory concentrations (MIC: μg/ml) were measured.

[2] = system: P. vulgaris HX-19; experiment: as above; format: cell-based; conditions: Proteus vulgaris, HX19, 16 h, P. vulgaris HX-19; 10^6 CFU/ml; read-out: Minimum Inhibitory Concentration (MIC)
Experimental: as §1

[3] = system: K. pneumoniae PCI-602; experiment: as above; format: cell-based; conditions: Klebsiella pneumoniae, PCI602, 16 h, read-out: Minimum Inhibitory Concentration (MIC), K. pneumoniae PCI-602; 10^6 CFU/ml
Experimental: as §1

[4] = system: S. marcescens IAM 1184; experiment: as above; format: cell-based; conditions: Serratia marcescens, IAM1184, 16 h, read-out: Minimum Inhibitory Concentration (MIC)
Experimental: as §1

[5] = system: E. coli NIHJ JC2; experiment: as above; format: cell-based; conditions: Escherichia coli, NIHJJC2, 16 h, read-out: Minimum Inhibitory Concentration (MIC), E. coli NIHJ JC2, 10^6 CFU/ml, 37° C.
Experimental: as §1

[6] = system: M. morganii GN5407; experiment: as above; format: cell-based; conditions: Morganella morganii, GN5407, 16 h, read-out: Minimum Inhibitory Concentration (MIC), *M. morganii GN5407, lactamase-producing strain; 10^6 CFU/ml
Experimental: as §1

[7] = system: S. marcescens No. 16-2; experiment: as above; format: cell-based; conditions: Serratia marcescens, NO.162, 16 h
Experimental: as §1

[8] = system: E. cloacae Nek 39; experiment: as above; format: cell-based; conditions: Enterobacter cloacae, NEK39, 16 h, read-out: Minimum Inhibitory Concentration (MIC), *E. cloacae Nek 39, lactamase-producing strain; 10^6 CFU/ml
Experimental: as §1

[9] = system: S. aureus 209P NIHJ-JC1; experiment: as above; format: cell-based; conditions: Staphylococcus aureus, 16 h
Experimental: as §1

[10] = system: E. coli GN5482; experiment: as above; format: cell-based; conditions: Escherichia coli, GN5482, 16 h, read-out: Minimum Inhibitory Concentration (MIC)
Experimental: as §1

[11] = system: P. vulgaris No. 33; experiment: as above; format: cell-based; conditions: Proteus vulgaris, NO.33, 16 h, read-out: Minimum Inhibitory Concentration (MIC), *P. vulgaris No. 33, lactamase-producing strain; 10^6 CFU/ml
Experimental: as §1

[12] = system: E. cloacae 963; experiment: as above; format: cell-based; conditions: 10^6 CFU/ml
Experimental: as §1

[13] = system: K. pneumoniae No. 42; experiment: as above; format: cell-based; conditions: Klebsiella pneumoniae, NO.42, 16 h, read-out: Minimum Inhibitory Concentration (MIC), *K. pneumoniae No. 42, lactamase-producing strain; 10^6 CFU/ml
Experimental: as §1

[14] = system: K. oxytoca GN10650; experiment: as above; format: cell-based; conditions: Klebsiella oxytoca, GN10650, 16 h, read-out: Minimum Inhibitory Concentration (MIC), *K. oxytoca GN10650, lactamase-producing strain; 10^6 CFU/ml
Experimental: as §1

[15] = system: E. coli CSH(RE45); experiment: microbe, parasite or virus in culture; format: cell-based; conditions: Escherichia coli, 16 h, read-out: Minimum Inhibitory Concentration (MIC), *E. coli CSH(RE45), lactamase-producing strain; 10^6 CFU/ml
Experimental: as §1

[16] = system: E. coli CSH2 (RK1); experiment: microbe, parasite or virus in culture; format: cell-based; conditions: Escherichia coli, 16 h, read-out: Minimum Inhibitory Concentration (MIC), *E. coli CSH2 (RK1), lactamase-producing strain; 10^6 CFU/ml
Experimental: as §1

[17] = system: Ps. aeruginosa IF03445; experiment: in vitro antibacterial activity, agar plate dilution method (MIC); format: cell-based, Pseudomonas aeruginosa; conditions: Pseudomonas aeruginosa, 10^6 CFU/ml
Experimental: as §1

[18] = system: Ps. aeruginosa AKR17; experiment: as above; format: cell-based, Pseudomonas aeruginosa; conditions: Pseudomonas aeruginosa, read-out: Minimum Inhibitory Concentration (MIC)
Experimental: as §1

[19] = system: Ps. aeruginosa AK 109; experiment: as above; format: cell-based, Pseudomonas aeruginosa; conditions: Pseudomonas aeruginosa, AK109, 16 h, read-out: Minimum Inhibitory Concentration (MIC)
Experimental: as §1

[20] = system: A. calcoaceticus No. 4; experiment: as above; format: cell-based, Acinetobacter calcoaceticus; conditions: Acinetobacter calcoaceticus, NO.4, 16 h, 10^6 CFU/ml
Experimental: as §1

[21] = S. marcescens IAM 1184, 10^6 CFU/ml
[22] = read-out: Minimum Inhibitory Concentration (MIC)
[23] = Enterobacter cloacae, 16 h, E. cloacae 963, read-out: Minimum Inhibitory Concentration (MIC)
[24] = IF03445, 16 h, read-out: Minimum Inhibitory Concentration (MIC), Ps. aeruginosa IF03445
[25] = 16 h, Ps. aeruginosa AKR17, 10^6 CFU/ml
[26] = A. calcoaceticus No. 4, read-out: Minimum Inhibitory Concentration (MIC)
[27] = Ps. aeruginosa AK 109, 10^6 CFU/ml

SMILES	MIC [1]	MIC [2]	MIC [3]	MIC [4, 21]	MIC [5]	MIC [6]	MIC [7, 22]	MIC [8]	MIC [9, 22]	MIC [10]	MIC [11]	MIC [12, 23]	MIC [13]	MIC [14]	MIC [15]	MIC [16]	MIC [17, 24]	MIC [18, 25]	MIC [20, 26]	MIC [19, 27]	also measured
Nc1nc(/C(=N/OCc2ccccc2)C(=O)N[C@@H]2C(=O)N3C(C(=O)O)=C(CSc4nnc(-c5ccc(O)c(O)c5)o4)CS[C@H]23)cs1 [Ex. 13, sodium 7β-[2-(2-aminothiazol-4-yl)-2-benzyloxyiminoacetamido]-3-[5-(3,4-dihydroxyphenvl)-1,3,4-oxadiazol-2-yl]thiomethyl-3-cephem-4-carboxylate]	0.025 µg/mL	< 0.006 µg/mL	< 0.006 µg/mL	0.0125 µg/mL	0.1 µg/mL	0.025 µg/mL	3.12 µg/mL	0.1 µg/mL	0.39 µg/mL	0.39 µg/mL	0.025 µg/mL	0.0125 µg/mL	0.05 µg/mL	0.39 µg/mL	1.56 µg/mL	< 0.006 µg/mL	0.39 µg/mL	50 µg/mL	0.2 µg/mL		MIC [19]: 0.39 µg/mL
Nc1nc(/C(=N/OCC(=O)O)C(=O)N[C@@H]2C(=O)N3C(C(=O)O)=C(CSc4nnc(-c5ccc(O)c(O)c5)o4)CS[C@H]23)cs1 [compound 10, disodium 78-[2-(2-aminothiazol-4-yl)-2-carboxylatemethoxyiminoacetamido]-3-[5-(3,4-dihydroxyphenyl)-1,3,4-oxadiazol-2-yl]thiomethvl-3-cephem-4-carboxylate]	< 0.006 µg/mL	< 0.006 µg/mL	< 0.006 µg/mL		0.05 µg/mL	0.025 µg/mL	0.39 µg/mL	0.05 µg/mL	12.5 µg/mL	0.39 µg/mL	0.025 µg/mL		0.025 µg/mL	0.1 µg/mL	0.0125 µg/mL	< 0.006 µg/mL	0.39 µg/mL		0.05 µg/mL	0.2 µg/mL	MIC [4]: 0.0125 µg/mL; MIC ([12]; Enterobacter cloacae, 963, 16 h, read-out: Minimum Inhibitory Concentration (MIC), E. cloacae 963): 0.025 µg/mL; MIC ([18]; AKR17, 16 h): 12.5 µg/mL
CCO/N=C(\C(=O)N[C@@H]1C(=O)N2C(C(=O)O)=C(CSc3nnc(-c4ccc(OC(C)=O)c(OC(C)=O)c4)o3)CS[C@H]12)c1csc(N)n1 [Ex. 6, sodium 3-[5-(3,4-diacetoxyphenyl)-1,3,4-oxadiazol-2-yl]thiomethyl-78-[2-(2-aminothiazol-4-yl)-2-ethoxyiminoacetamido]-3-cephem-4-carboxylate]	0.05 µg/mL	< 0.006 µg/mL	< 0.006 µg/mL	< 0.006 µg/mL	0.05 µg/mL	0.0125 µg/mL		0.05 µg/mL		0.39 µg/mL	0.0125 µg/mL	< 0.006 µg/mL	0.025 µg/mL	0.39 µg/mL	0.78 µg/mL	0.0125 µg/mL		> 100 µg/mL		0.1 µg/mL	MIC ([7]; read-out: Minimum Inhibitory Concentration (MIC), *S. marcescens No. 16-2, lactamase-producing strain, 10^6 CFU/ml): 0.78 µg/mL; MIC ([9]; read-out: Minimum Inhibitory Concentration (MIC), S. aureus 209P NIHJ-JC1, 10^6 CFU/ml, 37° C., 16 hours): 1.56 µg/mL; MIC ([17]; 16 h, Ps. aeruginosa IF03445, read-out: Minimum Inhibitory Concentration (MIC)): 0.2 µg/mL; MIC ([20]; read-out: Minimum Inhibitory Concentration (MIC), A. calcoaceticus No. 4): 0.1 µg/mL
